# Results as given in US4879313A, “Novel platelet-aggregation inhibitors” (Mosanto Company, priority 1988, dated 1989).
# How the values were obtained:
# [1] = test system: ADP-induced platelet aggregation in human PRP; test: In-vitro human platelet aggregation in PRP (ADP-induced); assay type: cell-based; settings: for HUMAN PRP % INHIBITION AT 10^-4 M: compound at 10^-4 M, human platelet-rich plasma; for IC50: human PRP, linear regression of the dose response curve
# Description: In one assay, platelet aggregation is examined in platelet-rich plasma which also is rich in fibrinogen and other plasma proteins. The % inhibition is determined for the test compound by comparing the extent of platelet aggregation in the presence and absence of the test compound.
# Healthy male or female donors who have not taken any antiplatelet drugs for at least 2 weeks were fasted for 8 hours prior to drawing blood; then 30 ml whole blood was collected using a butterfly needle and 30 cc plastic syringe with 3 ml of 0.129 M buffered sodium citrate (3.8%). The syringe was rotated carefully as blood was drawn to mix the citrate. Platelet-richplasma (PRP) was prepared by centrifugation at 100×g for 10 minutes at room temperature, allowing the centrifuge to coast to a stop without braking. The PRP was removed from the blood with a plastic pipette and placed in a plastic capped, 50 ml Corning conical sterile centrifuge tube which was held at room temperature. Platelet poor plasma (PPP) was prepared by centrifuging the remaining blood at 2000×g for 15 minutes at room temperature allowing the centrifuge to coast to a stop without braking. The PRP was adjusted with PPP to a count of 2-3×10^8 platelets per ml. 400 μl of the PRP preparation and 50 μl of the compound to be tested or saline were preincubated for 1 minute at 37° C. in a Payton aggregometer (Payton Scientific, Inc., Buffalo, N.Y.). 50 μl of adenosine 5'-diphosphate (ADP) (50 μM) was added to the cuvettes and the aggregation was monitored for 1 minute. All compounds are tested in duplicate. Results are calculated as follows: Percent of control=[(maximal OD minus initial OD of compound) divided by (maximal OD minus initial OD of control saline)]×100. The % inhibition=100-(percent of control).
# The compounds tested and their activity results in % inhibition at 10^-4 M and median inhibitory concentration (IC50) were as recorded in Table 1.
# [2] = test system: collagen induced rat thrombocytopenia (platelet aggregation); test: In vivo rat thrombocytopenia (collagen induced)
# Description: In another test, the effect of the peptide mimetic compound on collagen induced thrombocytopenia (platelet aggregation) is measured in vivo in the rat. Again, the % inhibition is determined for the test compound and compared against a saine or ethanol vehicle in the absence of the test compound.
# Male rats [Charles River, CRL:CD(SD), 400-450 g] were used. The rats were anesthetized with Na pentabarbital (65 mg/kg, Vet Labs, Limited, lnc., Lenexa, Kan.). Two incisions were made to expose both jugular veins. Using an infusion pump (Harvard Apparatus, South Natick, Mass.) and a 5 cc syringe with a 19 g. butterfly, the test compound or vehicle was infused into the left jugular vein at a rate of 0.39 ml/min for 3 min. After 2 min of compound/vehicle infusion, collagen (60 μg/kg) (Helena Laboratories,Beaumont, Tex.) was injected with a one ml syringe into the right jugular vein. The body cavity was opened and the vena cava was exposed for blood sampling. One min after the collagen injection, compound infusion was stopped and blood was sampled from the vena cava (within 30 sec) with a 3 cc syringe containing […] of 4.5% EDTA/Tris (0.1 M) (pH 7.35) plus 150 μM indomethacin. Platelet rich plasma (PRP) was prepared by centrifuging the blood at 126×g for 10 min. Five μ1 of PRP was counted in 20 ml of Isoton®III in a Coulter Counter.
# Percent inhibition of collagen induced aggregation was calculated by comparison of the platelet counts in animals that were treated with test compound and collagen (a) with platelet counts for animals receiving no collagen (non-aggregated control) and (b) with platelet counts for animals receiving vehicle and collagen (aggregated control).
# The % inhibition of platelet aggregation in vivo and the median effective dose (ED50) of the test compounds are set forth in the following Table II.
SMILES,HUMAN PRP % INHIBITION AT 10^-4 M [1],"% INHIBITION AT 1 mg/kg ([2]; 1 mg/kg, infusion into jugular vein, collagen 60 μg/kg, rat)","effective dose relative to that required for equivalent inhibitory activity by Arg-Gly-Asp-(O-methyl-Tyr)-NH2 ([2]; in vivo thrombocytopenia assay, fraction of reference dose)","ED50 ([2]; infusion into jugular vein, collagen induced thrombocytopenia, rat)","ED50 (orally active in rats) ([2]; oral, rats)",IC50 [1]
COc1ccc(CCNC(=O)C(CC(=O)O)NC(=O)CCCCCCCNC(=N)N)cc1 (centres unmarked) [8-guanidino-octanoyl-Asp-2-(4-methoxyphenyl)ethyl amide],100%,67.05%,about one eighth,0.07 mg/kg,7.8 mg/kg,
N=C(N)NCCCCCCCC(=O)N[C@@H](CC(=O)O)C(=O)N[C@@H](Cc1ccc(-c2ccccc2)cc1)C(N)=O [8-guanidino-octanoyl-Asp--(4-phenyl)-phenylalanine amide],100%,,,,,17 µM
COc1ccc(CCNC(=O)[C@H](CC(=O)O)NC(=O)CNCCCCNC(=N)N)cc1 [N--(4-guanidinobutyl)-Gly--Asp--2-(4-methoxy-phenyl)ethyl amide],0%,,,,,
COc1ccc(CCNC(=O)[C@H](CC(=O)O)NC(=O)CCCCCCNC(=N)N)cc1 [7-guanidino-heptanoyl-Asp--2-(4-methoxy-phenyl)ethyl amide],43%,,,,,
COc1ccc(CCNC(=O)[C@H](CC(=O)O)NC(=O)CCCCCCCCNC(=N)N)cc1 [9-guanidino-nonanoyl-Asp-2-(4-methoxyphenyl)ethyl amide],100%,,,,,27 µM
COc1ccc(CCNC(=O)[C@H](CC(=O)O)NC(=O)CCCCCCCCCNC(=N)N)cc1 [10-guanidino-decanoyl-Asp--2-(4-methoxy-phenyl)ethyl amide],65%,,,,,70 µM
"COc1ccc(CCNC(=O)[C@H](CC(=O)O)NC(=O)CCCCCCCNC(=N)N)cc1OC [8-guanidino-octanoyl-Asp--2-(3,4-dimethoxy-phenyl)ethyl amide]",100%,,,,,12 µM
COc1ccc(CNC(=O)[C@H](CC(=O)O)NC(=O)CCCCCCCNC(=N)N)cc1 [8-guanidino-octanoyl-Asp--4-methoxybenzyl amide],100%,,,,,33 µM
